Read-outs that look alike come from different tables or passages of the source.

What all share (assay type): cell-based
For one assay, the system named is WHCO1 cells. Kind of assay: MTT assay, inhibition of cell growth of WHCO1 cells. As to conditions: for IC50: WHCO1 oesophageal epithelial cancer cells, MTT, 48 hours incubation. The procedure: (§1) The compounds were evaluated for their in vitro ability to inhibit cell growth of cultured tumour cells using the 3-(4,5-dimethylthiazol-2-yl)-2,5-diphenyltetrazolium bromide (MTT) assay. These cell types include:
3. WHCO1 cells which are oesophageal epithelial cancer cells; and
(§2) One oesophageal squamous cell carcinoma cell line WHCO1 originally established from surgical biopsies of primary oesophageal squamous cell carcinomas, a transformed fibroblast cell line CT-1 or human breast epithelial cells MDA-MB-231 were cultured in DMEM containing 10% foetal calf serum and 1% penicillin and streptomycin at 37° C. in a humidified atmosphere of 5% CO2. For the MTT assay, 3×10^3 cells were plated in 96-well plates in 90 μL DMEM per well. Compounds solubilized in DMEM+1% DMSO (10 μl) were added to cells and DMEM+1% DMSO, (10 μl) alone was added to the control to give a final concentration of 0-200 μM compound and 0.1% DMSO. After 48 hours incubation period, 10 μL of the MTT labelling reagent (final concentration 0.45 mg/ml) was added to each well and incubated for 4 hours in a humidified atmosphere at 37° C. One hundred micro litres of the solubilization solution was added to each well and the plates were incubated overnight at 37° C. The spectrophotometric absorbance of the wells was measured at 595 nm using a microtiter plate reader.

Another assay relates to CT-1 cells. The experiment in a line: MTT assay, inhibition of cell growth of CT-1 cells. As to conditions: CT-1 transformed WI38 fibroblasts, 48 hours incubation, read-out: CT1 IC50. The procedure: as §1
2. CT-1 cells which are transformed WI38 fibroblasts;
as §2

In the next assay the test system is MDA-MB-231 cells. Kind of assay: MTT assay, inhibition of cell growth of MDA-MB-231 cells. Particulars: MDA-MB-231 human breast epithelial cancer cells, 48 hours incubation. The procedure: as §1
5. MDA-MB-231 cells which are human breast epithelial cancer cells; and
as §2

For `C=CCSSC=CC[S+]([O-])CCCO` (mixture of isomers) [Compound E-4, (E/Z)-4,8,9-trithiadodeca-6,11-diene-1-ol-4-oxide], the 50% inhibitory concentration (IC50) in the assay on WHCO1 cells turned out to be 26.8 µM; in the assay on CT-1 cells it was 23.1 µM.
Taken in the same sequence, the figures for `C=CCSSC=CC[S+]([O-])CCCOCc1ccc(OC)cc1` (mixture of isomers) [Compound Z-9, (E/Z)-12-(p-methoxybenzyloxy)-4,5,9-trithiadodeca-1,6-diene-9-oxide] were 16.9 µM and 21.7 µM.
As to `COc1ccc(C[S+]([O-])CC=CSSCc2ccccc2)cc1` (mixture of isomers) [EZ-12, (E/Z)-1-phenyl-8-(p-methoxyphenyl)-2,3,7-trithiaocta-4-ene-7-oxide], the IC50 in the assay on MDA-MB-231 cells came out at 1.19 µM; with WHCO1 cells (WHCO1, 48 h), 3.05 µM.
Consider `C=CCSS/C=C\C[S+]([O-])CCC` (mixture of isomers) [Compound Z-3, (E/Z)-4,5,9-trithiadodeca-1,6-diene-9-oxide], for which the IC50 was 19.2 µM with MDA-MB-231 cells; 21.6 µM in the assay with WHCO1 cells (WHCO1, 48 h); 17 µM with CT-1 cells (Homo sapiens, WI-38, 48 h).
As for `C=CCSS/C=C/C[S+]([O-])CCC` (mixture of isomers) [Compound E-3, (E/Z)-4,5,9-trithiadodeca-1,6-diene-9-oxide], the IC50 was determined as 25.9 µM in the assay with MDA-MB-231 cells; 35.8 µM in the assay on WHCO1 cells (WHCO1, 48 h); 26.7 µM with CT-1 cells (Homo sapiens, WI-38, 48 h).
`C=CCSSC=CC[S+]([O-])C(C)(C)C` (mixture of isomers) [EZ-6, (E/Z)-10,10-dimethyl-4,5,9-trithiaundeca-1,6-diene-9-oxide]: the IC50 in the assay with WHCO1 cells stood at 25.4 µM; with CT-1 cells it was 33.1 µM.
Taken in the same sequence, the figures for `C=CCSSC=CC[S+]([O-])CCCO` (mixture of isomers) [Compound Z-4, (E/Z)-4,8,9-trithiadodeca-6,11-diene-1-ol-4-oxide] were 37.9 µM and 22.8 µM.
Consider `C=CCSSC=CC[S+]([O-])Cc1ccc(OC)cc1` (mixture of isomers) [EZ-8, (E/Z)-10-(p-methoxyphenyl)-4,5,9-trithiadeca-1,6-diene-9-oxide], for which the concentration for half-maximal inhibition (IC50) with MDA-MB-231 cells was determined as 6.6 µM; in the assay with WHCO1 cells (WHCO1, 48 h), 7.12 µM; in the assay with CT-1 cells (Homo sapiens, WI-38, 48 h), 11.2 µM.
As for `C=CCSSC=CC[S+]([O-])CCCN1C(=O)c2ccccc2C1=O` (mixture of isomers) [Compound E-5, (E/Z)-12-phthalimido-4,5,9-trithiadodeca-1,6-diene-9-oxide], the concentration for half-maximal inhibition (IC50) with WHCO1 cells amounted to 68.9 µM; with CT-1 cells, 95.9 µM.
For the compound `C=CCSSC=CC[S+]([O-])CCCOCc1ccc(OC)cc1` (mixture of isomers) [Compound E-9, (E/Z)-12-(p-methoxybenzyloxy)-4,5,9-trithiadodeca-1,6-diene-9-oxide], the IC50 in the assay with WHCO1 cells is 19.1 µM; in the assay with CT-1 cells, 23.5 µM.
For `C=CCSS/C=C/C[S+]([O-])CC=C` (stereo not drawn) [Z-ajoene, 4,5,9-trithiadodeca-1,6,11-triene-9-oxide, reference compound], the results for the IC50 in the assay on WHCO1 cells and in the assay with CT-1 cells were 20.5 µM and 15.5 µM, respectively.
In the case of `C=CCSSC=CC[S+]([O-])CCCN1C(=O)c2ccccc2C1=O` (mixture of isomers) [Compound Z-5, (E/Z)-12-phthalimido-4,5,9-trithiadodeca-1,6-diene-9-oxide], the concentration for half-maximal inhibition (IC50) was 36 µM in the assay with WHCO1 cells and 34.6 µM in the assay with CT-1 cells.
As to `C=CCSS/C=C/C[S+]([O-])CC=C` (stereo not drawn) [E-ajoene, 4,5,9-trithiadodeca-1,6,11-triene-9-oxide, reference compound], the half-maximal inhibitory concentration (IC50) with WHCO1 cells (WHCO1, 48 h) came out at 20.9 µM; in the assay on CT-1 cells (Homo sapiens, WI-38, 48 h), 17.6 µM.
Taken in the same sequence, the figures for `C=CCSSC=CC[S+]([O-])Cc1ccccc1` (mixture of isomers) [EZ-7, (E/Z)-10-phenyl-4,5,9-trithiadeca-1,6-diene-9-oxide] were 8.8 µM and 16.6 µM.
For `CCC[S+]([O-])CC=CSSCCCNS(=O)(=O)c1cccc2c(N(C)C)cccc12` (mixture of isomers) [EZ-13, (E/Z)-1-(dansylamino)-4,5,9-trithiadodeca-6-ene-9-oxide], the half-inhibitory concentration (IC50) came to 42.6 µM in the assay on MDA-MB-231 cells, 14.2 µM with WHCO1 cells and 17.7 µM in the assay with CT-1 cells.
As to `COc1ccc(CSSC=CC[S+]([O-])Cc2ccc(OC)cc2)cc1` (mixture of isomers) [EZ-11, (E/Z)-1-(p-methoxyphenyl)-8-(p-methoxyphenyl)-2,3,7-trithiaocta-4-ene-7-oxide], the half-inhibitory concentration (IC50) was 0.82 µM in the assay on MDA-MB-231 cells and 1.34 µM with WHCO1 cells. Moreover, the “activity relative to ajoene at inhibiting growth of WHCO1 oesophageal cancer cells in vitro” value in the assay on WHCO1 cells (compared with ajoene, WHCO1 cells) is “fifteen times more active than ajoene”.
Turning to `CCC[S+]([O-])CC=CSSC` (mixture of isomers) [Compound E-15, (E/Z)-2,3,7-trithiadeca-4-ene-7-oxide], the half-inhibitory concentration (IC50) was 47.4 µM in the assay with WHCO1 cells and 10.3 µM in the assay on CT-1 cells.
Taken in the same sequence, the figures for `CCCSSC=CC[S+]([O-])CCC` (mixture of isomers) [Compound E-14, (E/Z)-4,5,9-trithiadodeca-6-ene-9-oxide] were 33.8 µM and 9.32 µM.
`COc1ccc(C[S+]([O-])CC=CSSCc2ccc(F)cc2)cc1` (mixture of isomers) [EZ-10, (E/Z)-1-(p-fluorophenyl)-8-(p-methoxyphenyl)-2,3,7-trithiaocta-4-ene-7-oxide] gave a half-maximal inhibitory concentration (IC50) in the assay on WHCO1 cells of 13.6 µM.

The record behind these values is patent US8524781B2, “Organosulfur compounds, a method of making organosulfur compounds and their use for inhibiting the growth of tumour cells” (University of Cape Town, priority 2008, dated 2013).
